Measurements: US20260193171A1, “PHARMACEUTICAL SALT OF POLYAMINE DERIVATIVE, CRYSTAL FORM THEREOF, AND PREPARATION METHOD THEREFOR” (WUHAN WUYAO SCI & TECH CO., LTD, priority 2022, published 2026)
Like-named read-outs stand apart in the source and are kept apart here.

Experiments:
Type in all cases: physicochemical
[1] = Screening of salt form (salt-forming morphology); conditions: for Salt-forming morphology: free base in ethanol plus acid, room temperature, acid-base molar feeding ratio 1:1 (α, unmarked) or 3:1 (β)
Procedure: The subsequent processing steps were as follows: 1) the turbid system(s) was centrifuged to separate solids; 2) the wall-sticking and gelling system(s) was subjected to cyclic heating and cooling treatment at 25-50° C. (the heating and cooling procedure is shown in Table 5) for the purpose of trying to improve the apparent state/obtain solids; 3) the clear or slightly turbid system(s) was magnetically stirred at 5° C. for about 5 h, and then left to stand at −20° C. overnight for the purpose of trying to collect a sufficient amount of solids for subsequent characterization, and if the amount of solids was still low, slow volatilization at room temperature was performed; if the system(s) was still clear ultimately, anti-solvent addition (n-heptane) or slow volatilization at room temperature was performed. The solids obtained above were centrifuged.

[2] = Observation of isolated solid after filtration; conditions: after slurrying with ethyl acetate and filtration, room temperature
Procedure: The solution of phosphoric acid in methanol was slowly and dropwise added to the solution of the free base in methanol. The mixture was reacted under stirring at 0-5° C. for 4 h. Serious wall sticking was observed. After the methanol was concentrated to dryness, the sticky solid on the wall was scraped by a spatula, slurried with ethyl acetate, and then filtered. […] The oil was dried in an oven at 30° C. for 16 h to obtain a solid. The solid was sampled for purity, content, and acid-base ratio tests. The acid-base ratio is the molar amount of phosphoric acid/the molar amount of bis((N-3-aminopropyl)-(N-(3,4-dimethoxyphenylpropionyl)))aminopropylamine, namely the acid-base molar ratio.

[3] = Crystal form stability of phosphate crystal form A; conditions: 2 weeks
Procedure: The conditions of the X-ray powder diffractometer (XRPD) test were as follows: X-ray powder diffraction data of a sample(s) was collected at ambient conditions using Bruker D2 PHASER X-ray powder diffractometer with an X-ray emitter power of 300 W, a sample stage with no background signal, a step speed of 0.15 s/step, total step of 1837 steps, a step size of 2θ=0.02°, a voltage of 30 kV, and a current of 10 mA. The X-ray tube was a tube of Cu target (Kα) with a Kα2/Kα1 strength ratio of 0.50 (1.54439 Å/1.5406 Å).

[4] = Solid stability test at 25° C./60% RH, chemical purity by HPLC; conditions: for Change in properties and purity on storage: 5 days and 2 weeks; for Purity (peak area, %) 0 day: initial sample; for Stability (judgement in words): room temperature storage
Procedure: The stability of a sample(s) was determined by HPLC, and specifically, Agilent 1260 Infinity II LC System (equipped with a DAD detector) was used to collect the purity and solubility data of the sample(s).
To assess the solid stability of different salts, about 15 mg of a sample was weighed into an HPLC vial, and the vial was opened and placed at 25° C./60% RH. The initial sample and the samples stored for 5 days and 2 weeks were subjected to chemical purity assays (HPLC) and hygroscopicity tests. […] The solid phosphate prepared with an acid-base feeding ratio of 1 or 3 was sampled to measure the acid-base ratio, and the test method for the content of phosphate radical ions is shown in Table 2.
(§1) The stability of the samples were determined by HPLC, and specifically, Agilent 1260 Infinity II LC System (equipped with a DAD detector) was used to collect the purity and solubility data of samples. The hygroscopicity of samples was determined according to the method in the Phamacopoeia of the People's Republic of China, and the specific determination method is shown in section “6. Determination of hygroscopicity” of the specification.

[5] = Determination of hygroscopicity (Chinese Pharmacopoeia 2015); conditions: 25° C., 80% RH, 24 h; for Hygroscopicity (%): weight gain
Procedure: The hygroscopicity was determined by referring to the guiding principle of the hygroscopicity test of medicaments in the Phamacopoeia of the People's Republic of China 2015 Edition. The specific test method is as follows: • 1. taking a dried glass weighing bottle with a stopper (outside diameter: 50 mm, height: 15 mm) and placing in a suitable 25° C.±1° C. thermostatic dryer (with a saturated ammonium chloride or ammonium sulfate solution placed in the lower part) or a climatic cabinet (with temperature set at 25° C.±1° C., and relative humidity set at 80%±2%) one day before the test, and accurately weighing the weight (m1). • 2. taking an appropriate amount of a test sample, spreading it in the weighing bottle described above with a thickness of about 1 mm, and accurately weighing the weight (m2). • 3. opening the weighing bottle, and placing it under constant temperature and humidity conditions for 24 h together with the bottle cap. • 4. covering the weighing bottle, and accurately weighing the weight (m3).
as §1

[6] = Dynamic solubility in water and biological vehicles at 37° C.; conditions: for solubility: thermodynamic from solid, 100 rpm, 1/4/24 h, HPLC
Procedure: The phosphate was subjected to dynamic solubility tests in water and 3 biological vehicles (simulated gastric juice SGF, simulated fasting intestinal juice FaSSIF, and simulated feeding intestinal juice FeSSIF) at 37° C., and the specific method for the solubility tests were as follows: four samples of 30 mg each were weighed, and added into 3 mL of water and 3 biological solvents separately, and shaken at a constant temperature of 37° C.
The solubility of the phosphate in water/SGF/FaSSIF/FeSSIF was >9 mg/mL. The solubility of samples was determined by HPLC, and specifically, Agilent 1260 Infinity II LC System (equipped with a DAD detector) was used to collect the purity and solubility data of samples. […] The phosphate had good solubility both in water and simulated in-vivo environment.

[7] = Stability of free base left at room temperature
[8] = Stability of acid-base ratio on recrystallization in methanol-water or water-methanol; conditions: methanol-water or water-methanol recrystallization system

## O=C(O)c1ccccc1 [Benzoic acid]
[1]
  Salt-forming morphology: Oil^#

## COc1ccc(CCC(=O)NCCCN(CCCN)CCCNC(=O)CCc2ccc(OC)c(OC)c2)cc1OC.O=P(O)(O)O [Comparative Example 1, bis((N-3-aminopropyl)-(N-(3,4-dimethoxyphenylpropionyl)))aminopropylamine phosphate]
[2]
  Hygroscopic behaviour of solid after filtration: extremely hygroscopic and quickly turned into an oil

## COc1ccc(CCC(=O)N(CCCN)CCCNCCCN(CCCN)C(=O)CCc2ccc(OC)c(OC)c2)cc1OC [Example 7, bis((N-3-aminopropyl)-(N-(3,4-dimethoxyphenylpropionyl)))aminopropylamine phosphate]
[3]; 25° C./60% RH
  Change in crystal form after storage: no change in crystal form
[3]; 60° C.
  Change in crystal form after storage: no change in crystal form
[3]; 80° C.
  Change in crystal form after storage: no change in crystal form
[3]; illumination
  Change in crystal form after storage: no change in crystal form

## O=C(O)/C=C/C(=O)O [Fumaric acid]
[1]
  Salt-forming morphology: Gel^#

## O=C(O)c1cc(O)ccc1O [Gentisic acid]
[1]
  Salt-forming morphology: Gel^†

## O=C(O)CNC(=O)c1ccccc1 [Hippuric acid]
[1]
  Salt-forming morphology: Oil^#

## O=C(O)[C@H](O)[C@@H](O)C(=O)O [L-tartaric acid]
[1]
  Salt-forming morphology: Solid^※
[1]; sealed, 1 week
  State of solid after being sealed and placed at room temperature: gelled

## O=C(O)/C=C\C(=O)O [Maleic acid]
[1]
  Salt-forming morphology: Gel^#

## CS(=O)(=O)O [Methanesulfonic acid]
[1]
  Salt-forming morphology: Gel*

## O=C(O)CCC(=O)O [Succinic acid]
[1]
  Salt-forming morphology: Gel*

## COc1ccc(CCC(=O)N(CCCN)CCCNCCCN(CCCN)C(=O)CCc2ccc(OC)c(OC)c2)cc1OC [bis((N-3-aminopropyl)-(N-(3,4-dimethoxyphenylpropionyl)))aminopropylamine phosphate]
[4]; 25° C./60% RH, open vial
  Change in properties and purity on storage: no obvious change in properties and purity
[4]; 25° C./60% RH, open vial, HPLC
  Purity (peak area, %) 0 day: 99.56%
[4]
  Stability (judgement in words): good stability
[5]
  Hygroscopicity class: slightly hygroscopic
  Hygroscopicity (%): 1.29%
[6]; simulated fasting intestinal juice (FaSSIF), fassif, simulated fasting intestinal juice, read-out: Solubility in FaSSIF
  solubility: > 9000 µg/mL
[6]; simulated feeding intestinal juice (FeSSIF), fessif, simulated feeding intestinal juice, read-out: Solubility in FeSSIF
  solubility: > 9000 µg/mL
[6]; simulated gastric juice (SGF), simulated gastric fluid, simulated gastric juice, read-out: Solubility in SGF
  solubility: > 9000 µg/mL
[6]; water, 30 mg in 3 mL, read-out: Solubility in water
  solubility: > 9000 µg/mL
[6]; within 24 h
  pH value change during dynamic solubility test: did not change

## COc1ccc(CCC(=O)NCCCN(CCCN)CCCNC(=O)CCc2ccc(OC)c(OC)c2)cc1OC [free base, bis((N-3-aminopropyl)-(N-(3,4-dimethoxyphenylpropionyl)))aminopropylamine]
[7]; initial
  Purity before storage: 97.56%
[7]; room temperature, 7 days
  Purity after left at room temperature for 7 days: 73.73%

## Cc1ccc(S(=O)(=O)O)cc1 [p-Toluene sulfonic acid]
[1]
  Salt-forming morphology: Gel*

## Oxalate
[1]
  Salt-forming morphology: Solid
[5]
  Hygroscopicity class: extremely hygroscopic
  Hygroscopicity (%): 18.62%

## bis((N-3-aminopropyl)-(N-(3,4-dimethoxyphenylpropionyl)))aminopropylamine hydrochloride [Hydrochloride^α]
[5]
  Hygroscopicity class: extremely hygroscopic
  Hygroscopicity (%): 24.7%

## bis((N-3-aminopropyl)-(N-(3,4-dimethoxyphenylpropionyl)))aminopropylamine phosphate
[4]; 25° C./60% RH, open vial, 2 weeks, HPLC
  Purity (peak area, %) 2 weeks: 99.24%
[4]; 25° C./60% RH, open vial
  Change in properties and purity on storage: change into liquid from powdery solid
[4]; 25° C./60% RH, open vial, 5 days, HPLC
  Purity (peak area, %) 5 days: 99.41%
[4]; 25° C./60% RH, open vial, HPLC
  Purity (peak area, %) 0 day: 99.45%
[4]
  Stability (judgement in words): poor stability
[5]
  Hygroscopicity class: extremely hygroscopic
  Hygroscopicity (%): 18.05%
[8]
  Change of acid-base ratio after recrystallization: more than 10%
